Experimental data from patent US10351586B2, “Cytidine derivative dimers and applications thereof” (CHANGZHOU FANGYUAN PHARMACEUTICAL CO., LTD, priority 2014, dated 2019).
Marks after values point to notes of the source that are not given here.

Key:
[1] = Body weight / toxicity of a single intraperitoneal injection in HCT-116 colon tumor-bearing nude mice; details: D3 350 mg/kg, D4 300 mg/kg; for Average rate of weight change of the animals / Average weight of the animals: single IP injection (QD×1), D1 and D2 400 mg/kg; for Average weight of the animals: Mean±SEM
Experimental: Corresponding test substance was weighed and put into a 5 mL glass tube. The test substance was dissolved in ethanol under the stirring by a 5 mm magnetic stirrer. After a complete dissolution, Cremophor EL was added with continuous stirring. Immediately prior to the user of the test substance, the labeled amount of physiological saline was added and stirred.
Animal experiments were performed. The animals were female Balb/c nude mice at specific pathogen free (SPF) level and were supplied from Shanghai Sippr/BK Lab Animal Ltd. (Shanghai, China). […] These animals were at the age of about 7 weeks to about 9 weeks at the beginning of the experiments and had the weight of about 18 grams to about 22 grams at the beginning of the experiment. The animals had acclimatization duration of about 5 days to about 7 days. Animals were numbered using their tail number. The animal room was maintained at about 23±2° C., 40%-70% humidity, with alternating light and dark every 12 hours.
4.2 Animal inoculation and grouping were performed. Under aseptic conditions, each nude mice was injected with 0.1 mL cell suspension into the right hind leg subcutaneously (3×10^6 cell/mouse). When the size of the tumor grew to have a volume of about 60-150 mm^3, nude mice with a similar tumor size and a desirable shape (e.g., with substantially same shape such as a substantially spherical shape, without having irregular shapes or multiple tumors grouped together) were selected and grouped. In the experiment, there were six mice in each group.
The mice in control group were injected with a mixed solution including ethanol, Cremophor EL and normal saline at a ratio of 5:5:90.
4.4 Clinical symptoms were provided. All clinical symptoms of each animal were recorded at the beginning of the experiments and during the experiments. The observation was performed at the same time every day.
After administration of the test substance, when the weight reduction was >20%, when the animal was dying, or when the tumor volume exceeds about 2800 mm^3, the animal were euthanized by applying CO2. The tumor was separated and weighed, an autopsy was performed, and visual inspection was conducted and recorded on whether there were pathological changes in the organs.

[2] = system: HCT-116 human colon cancer xenografts; experiment: Tumor growth inhibition of HCT-116 human colon cancer xenografts in nude mice; assay type: in vivo, Balb/c nude mice; details: for Relative tumor proliferation rate (T/C %) / Relative tumor volume (RTV) / Tumor growth inhibition rate (TGI %) / Tumor volume of HCT-116 human colon cancer xenografts: single IP injection (QD×1), D1 and D2 400 mg/kg, D3 350 mg/kg, D4 300 mg/kg; for Tumor volume of HCT-116 human colon cancer xenografts: Mean±SEM
Experimental: 2. Preparation of the test substance was performed by dissolving the test substance using the following solvents:
3. Animal experiments were performed. […] Animals were numbered using their tail number.
4.1 Tumor cells were human HCT-116 colon cancer cells purchased from the Institute of Cell Biology, Chinese Academy of Sciences (Beijing, China). F-12 medium (containing 10% FBS) was used to culture cells in a carbon dioxide incubator at about 37° C., saturated humidity, under 5% CO2 and 95% air. Before inoculation, cells in logarithmic growth phase were collected. After digested by 0.25% trypsin, the cells were washed with PBS once. The cells were resuspended with serum-free medium and counted. Serum-free medium were used for cell resuspension, until the cell concentration was adjusted to about 3×10^7 cell/mL.
4.2 Animal inoculation and grouping were performed.
The diameters (D) of the tumor nodules were measured three times a week with a circle sizer ruler. In addition, the following formula was applied to calculate the volume of the tumor nodules (V): V=[…](D/2)^3 generally for a spherical shape. Evaluation indexes of antitumor activity were tumor growth inhibition rate TGI (%) and relative tumor proliferation rate T/C (%).
The calculation formula of TGI was: TGI (%)=(Vcontrol−VTreatment)/Vcontrol)×100%. The relative tumor volume (RTV) was calculated by: RTV=Vt/V0, where V0 is the tumor volume at the time of group administration, and Vt is the tumor volume at the time of measurement.
The mice were weighed 3 times every week.
4.5 Data and statistical analysis were provided.

[3] = D1 400 mg/kg Day 7, D2 400 mg/kg Day 9, D3 350 mg/kg Day 11, D4 300 mg/kg Day 11, single IP

SMILES: CCCCOC(=O)Nc1ccn(C2OC(COC(=O)CCC(=O)OC[C@H]3O[C@@H](n4ccc(NC(=O)OCc5ccccc5)nc4=O)C(F)(F)[C@@H]3O)C(O)C2(F)F)c(=O)n1 (stereo in doubt) [Compound D4, 1-O-(4-N-(Benzyloxycarbonyl)-gemcitabine)-4-O-(4-N-(n-Butoxycarbonyl)-gemcitabine)-succinate]
- Average rate of weight change of the animals ([1]; Day 0): 0.00%
- Average weight of the animals ([1]; Day 0): 20.15 ± 0.29 g
- Average rate of weight change of the animals ([1]; Day 1): −1.17 ± 1.27%
- Average weight of the animals ([1]; Day 1): 19.90 ± 0.19 g
- Average rate of weight change of the animals ([1]; Day 2): −8.18 ± 1.56 %
- Average weight of the animals ([1]; Day 2): 18.48 ± 0.2 g
- Average rate of weight change of the animals ([1]; Day 4): −5.33 ± 1.78%
- Average weight of the animals ([1]; Day 4): 19.07 ± 0.36 g
- Average rate of weight change of the animals ([1]; Day 7): −1.43 ± 1.92%
- Average weight of the animals ([1]; Day 7): 19.85 ± 0.38 g
- Average rate of weight change of the animals ([1]; Day 9): 2.91 ± 0.55 %
- Average weight of the animals ([1]; Day 9): 20.73 ± 0.29 g
- Average rate of weight change of the animals ([1]; Day 11): 4.47 ± 0.52 %
- Average weight of the animals ([1]; Day 11): 21.05 ± 0.31 g
- Average rate of weight change of the animals ([1]; Day 14): 3.72 ± 0.73 %
- Average weight of the animals ([1]; Day 14): 20.90 ± 0.34 g
- Average rate of weight change of the animals ([1]; Day 16): 6.62 ± 0.79 %
- Average weight of the animals ([1]; Day 16): 21.48 ± 0.34 g
- Average rate of weight change of the animals ([1]; Day 18): 8.99 ± 1.38 %
- Average weight of the animals ([1]; Day 18): 21.95 ± 0.27 g
- Average rate of weight change of the animals ([1]; Day 21): 7.41 ± 1.37 %
- Average weight of the animals ([1]; Day 21): 21.63 ± 0.30 g
- Average rate of weight change of the animals ([1]; Day 23): 9.37 ± 1.82 %
- Average weight of the animals ([1]; Day 23): 22.03 ± 0.43 g
- Average rate of weight change of the animals ([1]; Day 25): 10.69 ± 2.14 %
- Average weight of the animals ([1]; Day 25): 22.30 ± 0.49 g
- Average rate of weight change of the animals ([1]; Day 28): 8.62 ± 2.68%
- Average weight of the animals ([1]; Day 28): 21.88 ± 0.59 g
- Average rate of weight change of the animals ([1]; Day 30): 9.36 ± 2.21%
- Average weight of the animals ([1]; Day 30): 22.03 ± 0.53 g
- Toxicity in tumor-bearing mice (in words) ([1]; single IP injection, D2 400 mg/kg, judged from body weight versus control): no toxicity
- Relative tumor proliferation rate, minimum [2, 3]: 25.94%
- Tumor inhibition rate, maximum [2, 3]: 97.32%
- Relative tumor proliferation rate (T/C %) ([2]; Day 0): 0.00%
- Relative tumor volume (RTV) ([2]; Day 0): 1.00
- Tumor growth inhibition rate (TGI %) ([2]; Day 0): 0.00%
- Tumor volume of HCT-116 human colon cancer xenografts ([2]; Day 0): 44.09 ± 5.99** mm^3
- Relative tumor proliferation rate (T/C %) ([2]; Day 1): 77.07%
- Relative tumor volume (RTV) ([2]; Day 1): 1.12 ± 0.12
- Tumor growth inhibition rate (TGI %) ([2]; Day 1): 71.17%
- Tumor volume of HCT-116 human colon cancer xenografts ([2]; Day 1): 52.03 ± 12.91** mm^3
- Relative tumor proliferation rate (T/C %) ([2]; Day 2): 66.48%
- Relative tumor volume (RTV) ([2]; Day 2): 1.12 ± 0.12
- Tumor growth inhibition rate (TGI %) ([2]; Day 2): 76.55%
- Tumor volume of HCT-116 human colon cancer xenografts ([2]; Day 2): 52.03 ± 12.91** mm^3
- Relative tumor proliferation rate (T/C %) ([2]; Day 4): 43.31%
- Relative tumor volume (RTV) ([2]; Day 4): 0.79 ± 0.11
- Tumor growth inhibition rate (TGI %) ([2]; Day 4): 87.42%
- Tumor volume of HCT-116 human colon cancer xenografts ([2]; Day 4): 37.37 ± 10.46** mm^3
- Relative tumor proliferation rate (T/C %) ([2]; Day 7): 31.86%
- Relative tumor volume (RTV) ([2]; Day 7): 0.55 ± 0.10
- Tumor growth inhibition rate (TGI %) ([2]; Day 7): 94.11%
- Tumor volume of HCT-116 human colon cancer xenografts ([2]; Day 7): 25.46 ± 8.17** mm^3
- Relative tumor proliferation rate (T/C %) ([2]; Day 9): 30.55%
- Relative tumor volume (RTV) ([2]; Day 9): 0.55 ± 0.12
- Tumor growth inhibition rate (TGI %) ([2]; Day 9): 96.19%
- Tumor volume of HCT-116 human colon cancer xenografts ([2]; Day 9): 22.50 ± 5.31** mm^3
- Relative tumor proliferation rate (T/C %) ([2]; Day 11): 25.94%
- Relative tumor volume (RTV) ([2]; Day 11): 0.69 ± 0.20
- Tumor growth inhibition rate (TGI %) ([2]; Day 11): 97.32%
- Tumor volume of HCT-116 human colon cancer xenografts ([2]; Day 11): 26.19 ± 5.79** mm^3
- Relative tumor proliferation rate (T/C %) ([2]; Day 14): 32.83%
- Relative tumor volume (RTV) ([2]; Day 14): 1.81 ± 0.54
- Tumor growth inhibition rate (TGI %) ([2]; Day 14): 95.12%
- Tumor volume of HCT-116 human colon cancer xenografts ([2]; Day 14): 70.28 ± 18.37** mm^3
- Relative tumor proliferation rate (T/C %) ([2]; Day 16): 37.96%
- Relative tumor volume (RTV) ([2]; Day 16): 3.29 ± 0.82
- Tumor growth inhibition rate (TGI %) ([2]; Day 16): 92.12%
- Tumor volume of HCT-116 human colon cancer xenografts ([2]; Day 16): 142.77 ± 49.34** mm^3
- Relative tumor proliferation rate (T/C %) ([2]; Day 18): 26.76%
- Relative tumor volume (RTV) ([2]; Day 18): 5.11 ± 1.12
- Tumor growth inhibition rate (TGI %) ([2]; Day 18): 88.56%
- Tumor volume of HCT-116 human colon cancer xenografts ([2]; Day 18): 228.58 ± 76.92** mm^3
- Relative tumor proliferation rate (T/C %) ([2]; Day 21): 37.28%
- Relative tumor volume (RTV) ([2]; Day 21): 8.73 ± 1.39
- Tumor growth inhibition rate (TGI %) ([2]; Day 21): 84.66%
- Tumor volume of HCT-116 human colon cancer xenografts ([2]; Day 21): 375.06 ± 86.27 mm^3
- Relative tumor proliferation rate (T/C %) ([2]; Day 23): 50.04%
- Relative tumor volume (RTV) ([2]; Day 23): 9.89 ± 1.30
- Tumor growth inhibition rate (TGI %) ([2]; Day 23): 82.19%
- Tumor volume of HCT-116 human colon cancer xenografts ([2]; Day 23): 420.73 ± 76.08 mm^3
- Relative tumor proliferation rate (T/C %) ([2]; Day 25): 53.68%
- Relative tumor volume (RTV) ([2]; Day 25): 11.61 ± 1.51
- Tumor growth inhibition rate (TGI %) ([2]; Day 25): 80.98%
- Tumor volume of HCT-116 human colon cancer xenografts ([2]; Day 25): 491.29 ± 83.78 mm^3
- Relative tumor proliferation rate (T/C %) ([2]; Day 28): 69.72%
- Relative tumor volume (RTV) ([2]; Day 28): 14.73 ± 2.18
- Tumor growth inhibition rate (TGI %) ([2]; Day 28): 77.39%
- Tumor volume of HCT-116 human colon cancer xenografts ([2]; Day 28): 608.08 ± 85.37 mm^3
- Relative tumor proliferation rate (T/C %) ([2]; Day 30): 76.91%
- Relative tumor volume (RTV) ([2]; Day 30): 19.08 ± 2.98
- Tumor growth inhibition rate (TGI %) ([2]; Day 30): 72.14%
- Tumor volume of HCT-116 human colon cancer xenografts ([2]; Day 30): 781.78 ± 105.33 mm^3
- Inhibition of growth of HCT-116 human colon cancer xenografts (in words) ([2]; single IP injection, 300-400 mg/kg): higher tumor inhibition rates
